For this experiment, the system named is pAG2339 promoter deletion (gus reporter) in PR8-2, PR8-3, PR8-12. Type of experiment: cell-based, tobacco.

The text below walks through data of patent US7557268B1, “Promoter for expression of a gene and response to infection or wounding” (priority 1999, dated 2009).

The structures appear in SMILES notation.

As to `O=C(O)c1ccccc1O` [SA, salicylic acid], the “change of reporter gene activity (in words)” value is listed as “no significant change”.
